From patent US20110282056A1, “PROTEIN KINASE INHIBITORS AND USE THEREOF” (priority 2008, published 2011)

Experiments:
Assay type in all cases: biochemical
VEGFR3 = biological target: T1, VEGFR3 (Homo sapiens, UniProt P35916); test: VEGFR3 enzyme activity assay (Caliper LC3000 mobility shift); conditions: 400 uM ATP (Km), 0.4 nM VEGFR3, 90 minutes at RT
T1 construct: purchased Millpore Corp. (Millipore) 14-681
Experimental: (§1) Enzyme activity for VEGFR3, VEGFR2 and Flt3 were measured on the Caliper Life Sciences LC3000 (Hopkinton, Mass.). The system utilizes the principle of electroosmotic flow to separate and quantify the amount of phosphorylated-Fluorescein-labelled-peptide (product) from unphosphorylated-Fluorescein-labelled peptide (substrate). The amount of product and substrate are determined by measuring the peak heights from the electropherogram. The enzyme activity is then quantified by dividing the amount of product by the sum of the product and substrate. The inhibitory activity of a sample is measured by comparing the enzyme activity in the presence of sample versus the enzyme activity in the presence of dimethylsufoxide (DMSO). Specific assay conditions for each enzyme are listed below:
(§2) VEGFR3 assay: The peptide substrate at 1 uM (FITC-KKKKEEIYFFF-CONH2; synthesized at Tufts University, Boston, Mass.) was incubated with 400 uM of ATP, corresponding to the Michaelis-Menten (Km) constant of the enzyme/substrate reaction, and 0.4 nM of VEGFR3 (Millpore Corp., Cat. No. 14-681) for 90 minutes at RT. After 90 minutes, the reaction was stopped by the addition of 10 mM EDTA. The substrate and product were then separated on the LC3000.

Flt3 = biological target: T2, Flt3 (Homo sapiens, UniProt P36888); test: Flt3 enzyme activity assay (Caliper LC3000 mobility shift); conditions: 350 uM ATP (Km), 3 nM Flt3, 90 minutes at RT
T2 construct: purchased BPS Bioscience; San Diego, Calif; 40225
T2 sequence (P36888 27-993): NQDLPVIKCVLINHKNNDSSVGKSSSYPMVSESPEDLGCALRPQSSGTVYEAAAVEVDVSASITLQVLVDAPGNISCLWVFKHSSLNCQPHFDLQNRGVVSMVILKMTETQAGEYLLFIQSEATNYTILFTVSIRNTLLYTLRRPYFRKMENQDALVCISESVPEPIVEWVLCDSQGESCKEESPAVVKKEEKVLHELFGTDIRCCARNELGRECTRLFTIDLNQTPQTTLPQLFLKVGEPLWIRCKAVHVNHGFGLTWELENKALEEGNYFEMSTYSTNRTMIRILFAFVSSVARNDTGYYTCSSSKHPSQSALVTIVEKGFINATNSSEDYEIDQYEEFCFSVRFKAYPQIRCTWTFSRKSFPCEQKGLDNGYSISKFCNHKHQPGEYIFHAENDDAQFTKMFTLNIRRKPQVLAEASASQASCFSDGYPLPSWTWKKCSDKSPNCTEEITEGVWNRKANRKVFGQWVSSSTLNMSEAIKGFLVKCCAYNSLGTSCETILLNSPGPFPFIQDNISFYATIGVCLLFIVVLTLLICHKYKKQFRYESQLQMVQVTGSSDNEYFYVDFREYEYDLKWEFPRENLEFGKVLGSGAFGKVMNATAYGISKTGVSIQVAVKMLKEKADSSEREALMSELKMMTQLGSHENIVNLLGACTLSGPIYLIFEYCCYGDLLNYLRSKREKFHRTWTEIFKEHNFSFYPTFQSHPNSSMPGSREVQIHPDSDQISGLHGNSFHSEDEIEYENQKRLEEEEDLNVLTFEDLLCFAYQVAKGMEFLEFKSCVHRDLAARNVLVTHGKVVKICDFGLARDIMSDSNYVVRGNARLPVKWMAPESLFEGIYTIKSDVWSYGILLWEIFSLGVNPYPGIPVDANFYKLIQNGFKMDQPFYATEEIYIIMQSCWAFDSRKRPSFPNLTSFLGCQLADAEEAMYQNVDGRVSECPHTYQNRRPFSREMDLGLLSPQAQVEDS
Experimental: as §1
as §2, with “Flt3” for “VEGFR3”, “(FITC-AHA-UEAIYAAPFAKKK-CONH2;” for “(FITC-KKKKEEIYFFF-CONH2;”, “350” for “400”, “3” for “0.4”, “Flt3 (BPS Bioscience; San Diego, Calif.;” for “VEGFR3 (Millpore Corp.,”, “40225)” for “14-681)”

VEGFR2 = biological target: T3, VEGFR2 (Homo sapiens, UniProt P35968); test: VEGFR2 enzyme activity assay (Caliper LC3000 mobility shift); conditions: 160 uM ATP (Km), 1 nM VEGFR2, 90 minutes at RT
T3 construct: purchased BPS Bioscience; San Diego, Calif; 40301
Experimental: as §1
as §2, with “VEGFR2” for “VEGFR3”, “(5-FL-EEPLYWSFPAKKK-CONH2;” for “(FITC-KKKKEEIYFFF-CONH2;”, “160” for “400”, “1” for “0.4”, “VEGFR2 (BPS Bioscience; San Diego, Calif.;” for “VEGFR3 (Millpore Corp.,”, “40301)” for “14-681)”

T3 sequence (P35968 20-1356): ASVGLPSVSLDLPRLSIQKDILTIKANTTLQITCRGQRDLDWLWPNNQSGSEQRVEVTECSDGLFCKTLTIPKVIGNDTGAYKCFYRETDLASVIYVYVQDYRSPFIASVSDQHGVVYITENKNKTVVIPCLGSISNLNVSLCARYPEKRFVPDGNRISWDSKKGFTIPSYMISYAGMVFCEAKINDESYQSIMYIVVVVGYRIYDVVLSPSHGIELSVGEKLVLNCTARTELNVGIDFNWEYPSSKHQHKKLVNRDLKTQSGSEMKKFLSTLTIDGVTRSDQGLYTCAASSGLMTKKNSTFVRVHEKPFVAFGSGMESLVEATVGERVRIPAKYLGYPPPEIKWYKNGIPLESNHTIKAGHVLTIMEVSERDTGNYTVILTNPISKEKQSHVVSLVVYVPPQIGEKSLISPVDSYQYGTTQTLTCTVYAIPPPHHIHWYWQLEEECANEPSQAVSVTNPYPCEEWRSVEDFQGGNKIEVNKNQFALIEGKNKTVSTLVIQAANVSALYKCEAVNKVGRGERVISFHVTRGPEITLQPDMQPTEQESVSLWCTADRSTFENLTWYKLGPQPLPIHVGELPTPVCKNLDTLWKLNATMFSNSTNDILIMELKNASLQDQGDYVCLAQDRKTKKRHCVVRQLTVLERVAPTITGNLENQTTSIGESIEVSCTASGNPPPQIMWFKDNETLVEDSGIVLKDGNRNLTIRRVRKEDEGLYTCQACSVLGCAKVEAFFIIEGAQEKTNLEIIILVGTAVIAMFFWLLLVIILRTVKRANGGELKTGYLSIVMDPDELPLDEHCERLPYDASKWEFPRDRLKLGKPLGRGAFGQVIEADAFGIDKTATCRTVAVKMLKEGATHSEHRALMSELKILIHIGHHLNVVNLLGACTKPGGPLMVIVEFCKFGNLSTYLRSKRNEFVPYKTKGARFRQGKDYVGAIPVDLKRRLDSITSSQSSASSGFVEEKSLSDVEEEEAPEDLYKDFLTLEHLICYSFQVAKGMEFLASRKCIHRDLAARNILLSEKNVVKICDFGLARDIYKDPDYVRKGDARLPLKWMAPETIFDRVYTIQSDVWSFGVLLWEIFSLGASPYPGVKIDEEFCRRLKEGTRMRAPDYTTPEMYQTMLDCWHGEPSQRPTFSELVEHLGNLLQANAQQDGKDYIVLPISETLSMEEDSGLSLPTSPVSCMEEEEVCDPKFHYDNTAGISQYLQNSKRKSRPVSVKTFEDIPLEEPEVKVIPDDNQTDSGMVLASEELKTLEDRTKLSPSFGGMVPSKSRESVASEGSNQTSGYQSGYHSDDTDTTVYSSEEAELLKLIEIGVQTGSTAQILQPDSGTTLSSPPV
T1 sequence (P35916 25-1363): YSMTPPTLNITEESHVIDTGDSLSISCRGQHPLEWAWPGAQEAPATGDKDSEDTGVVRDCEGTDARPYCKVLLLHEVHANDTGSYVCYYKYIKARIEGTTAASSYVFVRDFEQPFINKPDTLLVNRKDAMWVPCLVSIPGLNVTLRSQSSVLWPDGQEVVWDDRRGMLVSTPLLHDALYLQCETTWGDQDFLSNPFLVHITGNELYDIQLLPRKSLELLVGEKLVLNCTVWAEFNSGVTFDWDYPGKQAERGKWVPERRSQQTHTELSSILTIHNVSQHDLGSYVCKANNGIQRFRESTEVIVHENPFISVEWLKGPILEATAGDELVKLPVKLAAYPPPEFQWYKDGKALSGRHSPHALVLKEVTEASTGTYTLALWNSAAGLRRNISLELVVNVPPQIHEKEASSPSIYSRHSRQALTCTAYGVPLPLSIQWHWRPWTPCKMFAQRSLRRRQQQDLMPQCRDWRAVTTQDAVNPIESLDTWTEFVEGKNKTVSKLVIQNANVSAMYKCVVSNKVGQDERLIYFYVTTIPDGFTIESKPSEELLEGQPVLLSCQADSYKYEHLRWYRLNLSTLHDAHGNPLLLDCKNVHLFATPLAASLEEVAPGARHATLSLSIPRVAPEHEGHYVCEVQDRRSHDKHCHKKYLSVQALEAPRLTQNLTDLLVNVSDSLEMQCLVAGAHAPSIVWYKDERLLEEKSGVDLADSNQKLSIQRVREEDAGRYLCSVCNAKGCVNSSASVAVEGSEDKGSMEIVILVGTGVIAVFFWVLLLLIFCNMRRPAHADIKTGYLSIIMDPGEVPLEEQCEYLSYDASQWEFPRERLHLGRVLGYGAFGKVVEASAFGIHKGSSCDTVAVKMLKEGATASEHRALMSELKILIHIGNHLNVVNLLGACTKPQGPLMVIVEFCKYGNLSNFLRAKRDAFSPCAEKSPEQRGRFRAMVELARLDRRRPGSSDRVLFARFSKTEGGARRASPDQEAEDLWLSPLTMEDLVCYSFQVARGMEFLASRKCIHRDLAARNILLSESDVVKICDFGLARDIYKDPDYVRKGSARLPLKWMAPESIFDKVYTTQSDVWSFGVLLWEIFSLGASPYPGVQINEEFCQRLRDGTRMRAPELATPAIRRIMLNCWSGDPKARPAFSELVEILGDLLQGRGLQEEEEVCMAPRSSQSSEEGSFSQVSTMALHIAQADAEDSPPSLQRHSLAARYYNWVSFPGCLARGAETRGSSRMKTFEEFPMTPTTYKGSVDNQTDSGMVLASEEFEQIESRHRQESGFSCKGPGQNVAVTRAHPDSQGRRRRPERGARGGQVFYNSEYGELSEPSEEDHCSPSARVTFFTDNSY

| SMILES | IC50 (VEGFR3) [µM] | IC50 (Flt3) [µM] | IC50 (VEGFR2) [µM] |
| --- | --- | --- | --- |
| COC(=O)c1ccccc1C#Cc1ccnc2[nH]ccc12 [compound 43] | 0.1 to 1 | 0.1 to 1 | > 1 |
| C(#Cc1ccnc2[nH]ccc12)c1ccoc1 [compound 44] | 0.1 to 1 | > 1 | > 1 |
| CC(=O)Nc1ccccc1C#Cc1ccnc2[nH]ccc12 [compound 45] | 0.1 to 1 | > 1 | > 1 |
| COc1cncc(C#Cc2ccnc3[nH]ccc23)c1 [compound 46] | 0.1 to 1 | 0.1 to 1 | 0.1 to 1 |
| C(#Cc1ccnc2[nH]ccc12)c1cccc(N2CCOCC2)c1 [compound 47] | 0.1 to 1 | > 1 | > 1 |
| FC(F)(F)c1ccccc1C#Cc1ccnc2[nH]ccc12 [compound 48] | 0.1 to 1 | > 1 | > 1 |
| COc1ccc(F)cc1C#Cc1ccnc2[nH]ccc12 [compound 49] | 0.1 to 1 | > 1 | > 1 |
| CC(=O)c1cccc(C#Cc2ccnc3[nH]ccc23)c1 [compound 50] | 0.1 to 1 | 0.1 to 1 | > 1 |
| COc1cccc(C#Cc2ccnc3[nH]ccc23)c1 [compound 51] | 0.1 to 1 | 0.1 to 1 | > 1 |
| COc1ccccc1C#Cc1ccnc2[nH]ccc12 [compound 52] | 0.1 to 1 | > 1 | > 1 |
| C(#Cc1ccnc2[nH]ccc12)c1cccc(-c2cc[nH]n2)c1 [compound 53] | 0.1 to 1 | > 1 | > 1 |
| CCNC(=O)/C=C/c1cccc(C#Cc2ccnc3[nH]ccc23)c1 [compound 54] | 0.1 to 1 | > 1 | > 1 |
| COC(=O)c1cccc(C#Cc2ccnc3[nH]ccc23)c1 [compound 55] | 0.1 to 1 | > 1 | > 1 |
| O=C(NCc1ccccc1C#Cc1ccnc2[nH]ccc12)C(F)(F)F [compound 56] | 0.1 to 1 | > 1 | > 1 |
| Cc1ccncc1C#Cc1ccnc2[nH]ccc12 [compound 57] | 0.1 to 1 | 0.1 to 1 | 0.1 to 1 |
| C(#Cc1ccnc2[nH]ccc12)c1ccccc1-n1cccc1 [compound 58] | 0.1 to 1 | > 1 | > 1 |
| Fc1cccc(C#Cc2ccnc3[nH]ccc23)c1 [compound 59] | 0.1 to 1 | > 1 | > 1 |
| C(#Cc1ccnc2[nH]ccc12)c1cccc2[nH]ccc12 [compound 60] | 0.1 to 1 | > 1 | > 1 |
| N#CCc1ccc(C#Cc2ccnc3[nH]ccc23)cc1 [compound 61] | 0.1 to 1 | 0.1 to 1 | > 1 |
| Cc1cccc(C#Cc2ccnc3[nH]ccc23)c1 [compound 62] | 0.1 to 1 | > 1 | > 1 |
| COc1cccc(C#Cc2ccnc3[nH]ccc23)n1 [compound 63] | 0.1 to 1 | > 1 | > 1 |
| CCc1ccccc1C#Cc1ccnc2[nH]ccc12 [compound 64] | 0.1 to 1 | > 1 | > 1 |
| C=Cc1cccc(C#Cc2ccnc3[nH]ccc23)c1 [compound 65] | 0.1 to 1 | > 1 | > 1 |
